Legend:
[1] = Accelerated stability test (40° C., RH75%), change in degradation product CNS-7054; type: physicochemical; settings: for Change in CNS-7054, Accelerated experiment (40° C., RH75%): 6 months, after packaging, degradation product CNS-7054; for CNS-7054 increase, accelerated experiment (40° C., RH75%): in 1 month, sulfonate of the benzodiazepine derivative
Protocol: (§1) The compound of Formula I prepared in the above examples were selected, and placed under the conditions of 40° C., RH75% and 25° C., RH60% for an accelerated stability test and a long-term stability test after packaging. The changes in the degradation product (CNS-7054) in these compounds in 6 months were observed, and the results are shown in Table 13 below.
(§2) In addition, a lyophilized preparation made of sulfonates according to the prior art were partially degraded into carboxylic acid (CNS-7054) and released alcohol in both the accelerated and long-term experiments.

[2] = Long-term stability test (25° C., RH60%), change in degradation product CNS-7054; type: physicochemical; settings: for Change in CNS-7054, Long-term experiment (25° C., RH60%): 6 months, after packaging, degradation product CNS-7054; for CNS-7054 increase, long-term experiment (25° C., RH60%): in 3 months, sulfonate of the benzodiazepine derivative
Protocol: as §1, §2

patients = settings: Phase II clinical trial of ICU sedation; cited from earlier work
KM mice [3] = assay: 2*ED50 anesthesia pharmacodynamics experiment in KM mice (induction time, duration, walking time); type: in vivo; settings: n=20, dosage 2*ED50, tail vein injection in 5 seconds
Protocol: KM mice, half male and half female, 20 mice in each group. […] The time of loss of the righting reflex in mice (induction time), recovery time (duration) and walking time were recorded.

KM mice [4] = assay: Hypnotic ED50 in KM mice by sequential method (disappearance of righting reflex); type: in vivo; settings: male KM mice, tail vein injection in 5 seconds
Protocol: (§3) Sequential method was used to determine the hypnotic ED50 and LD50 in KM mice for the hydrochloride of the benzodiazepine derivative. Healthy and qualified male KM mice were selected, n=10−20. The drug was injected through the tail vein at a constant rate in 5 seconds. After preliminary pre-test, the approximate dosage that may cause hypnosis (or death) of the animals was found as an intermediate dosage in the formal experiment. A group interval of 0.8 was used, and 2-3 dosage groups were set up and down respectively. The formal experiment started with the administration from the intermediate dosage. When the animal was narcotized (or died), the dosage was reduced by one dose. If the animal was not narcotized (or died), the dosage was increased by one until 3-4 repetitions occurred. The ED50 value and LD50 value were measured with the disappearance of righting reflex or death as indicators. The therapeutic index (TI index=[…]) was calculated through LD50 and ED50 values.

KM mice [5] = assay: LD50 in KM mice by sequential method (death); type: in vivo; settings: for TI (therapeutic index): KM mice, calculated through LD50 and ED50 values; for LD50 (95% confidence interval): male KM mice, tail vein injection in 5 seconds, death, sequential method
Protocol: as §3

CCOC(=O)CCC1N=C(c2ccccn2)c2cc(Br)ccc2-n2c(C)cnc21.Cl (stereo not shown) [Ethyl, 2.8% glycine]
Change in CNS-7054, Accelerated experiment (40° C., RH75%) [1]: Not increased | Change in CNS-7054, Long-term experiment (25° C., RH60%) [2]: Not increased

COC(=O)CC[C@@H]1N=C(c2ccccn2)c2cc(Br)ccc2-n2c(C)cnc21 [Remimazolam]
hemodynamics of the patients after receiving the drug (patients): unstable | patients with plasma concentration higher than the normal range (patients): 10%

CCOC(=O)CCC1N=C(c2ccccn2)c2cc(Br)ccc2-n2c(C)cnc21.Cc1ccc(S(=O)(=O)O)cc1 (stereo not shown)
CNS-7054 increase, accelerated experiment (40° C., RH75%) [1]: Increased by 0.2% | CNS-7054 increase, long-term experiment (25° C., RH60%) [2]: Increased by 0.1%

COC(=O)CCC1N=C(c2ccccn2)c2cc(Br)ccc2-n2c(C)cnc21.Cl (stereo not shown) [Methyl, 4% glycine]
Change in CNS-7054, Accelerated experiment (40° C., RH75%) [1]: Increased by | Change in CNS-7054, Long-term experiment (25° C., RH60%) [2]: Not increased

CCOC(=O)CC[C@@H]1N=C(c2ccccn2)c2cc(Br)ccc2-n2c(C)cnc21.Cl [R is ethyl, hydrochloride, ethyl (S)-3-(8-bromo-1-methyl-6-(pyridin-2-yl)-4H-benzo[f]imidazo[1,2-a][1,4]diazepin-4-yl)propanoate hydrochloride]
incidence of the animal anesthesia time of more than 10 minutes (KM mice [3]): 20% | incidence of the animal walking time of more than 1 min (KM mice [3]): 15%

COC(=O)CCC1N=C(c2ccccn2)c2cc(Br)ccc2-n2c(C)cnc21.O=S(=O)(O)c1ccccc1 (stereo not shown) [positive control 1]
ED50 (95% confidence interval) (KM mice [4]): 40.64 mg/kg | TI (therapeutic index) (KM mice [5]): 6.6 | LD50 (95% confidence interval) (KM mice [5]): 270.09 mg/kg

CCOC(=O)CCC1N=C(c2ccccn2)c2cc(Br)ccc2-n2c(C)cnc21.Cl (stereo not shown) [Ethyl, 4% valine]
Change in CNS-7054, Accelerated experiment (40° C., RH75%) [1]: Increased by 0.01%

COC(=O)CC[C@@H]1N=C(c2ccccn2)c2cc(Br)ccc2-n2c(C)cnc21.O=S(=O)(O)c1ccccc1
CNS-7054 increase, accelerated experiment (40° C., RH75%) [1]: Increased by 0.07% | CNS-7054 increase, long-term experiment (25° C., RH60%) [2]: Increased by 0.04%

COC(=O)CCC1N=C(c2ccccn2)c2cc(Br)ccc2-n2c(C)cnc21.Cl (stereo not shown) [Methyl, None]
Change in CNS-7054, Accelerated experiment (40° C., RH75%) [1]: Not increased

CCOC(=O)CCC1N=C(c2ccccn2)c2cc(Br)ccc2-n2c(C)cnc21.Cl (stereo not shown) [Ethyl, 4% alanine]
Change in CNS-7054, Accelerated experiment (40° C., RH75%) [1]: Increased by 0.01% | Change in CNS-7054, Long-term experiment (25° C., RH60%) [2]: Not increased

CCOC(=O)CCC1N=C(c2ccccn2)c2cc(Br)ccc2-n2c(C)cnc21.O=S(=O)(O)c1ccccc1 (stereo not shown) [positive control 2]
ED50 (95% confidence interval) (KM mice [4]): 15.62 mg/kg | TI (therapeutic index) (KM mice [5]): 16.8 | LD50 (95% confidence interval) (KM mice [5]): 263.14 mg/kg

CCOC(=O)CCC1N=C(c2ccccn2)c2cc(Br)ccc2-n2c(C)cnc21.O=S(=O)(O)c1ccccc1 (stereo not shown)
CNS-7054 increase, accelerated experiment (40° C., RH75%) [1]: Increased by 0.05% | CNS-7054 increase, long-term experiment (25° C., RH60%) [2]: Increased by 0.03%

COC(=O)CCC1N=C(c2ccccn2)c2cc(Br)ccc2-n2c(C)cnc21.Cl (stereo not shown) [Methyl, 5% alanine]
Change in CNS-7054, Accelerated experiment (40° C., RH75%) [1]: Increased by 0.01% | Change in CNS-7054, Long-term experiment (25° C., RH60%) [2]: Not increased

COC(=O)CCC1N=C(c2ccccn2)c2cc(Br)ccc2-n2c(C)cnc21.Cl (stereo not shown) [Methyl, 4% valine]
Change in CNS-7054, Accelerated experiment (40° C., RH75%) [1]: Increased by 0.01% | Change in CNS-7054, Long-term experiment (25° C., RH60%) [2]: Not increased

CCOC(=O)CCC1N=C(c2ccccn2)c2cc(Br)ccc2-n2c(C)cnc21.Cl (stereo not shown) [Ethyl, None]
Change in CNS-7054, Accelerated experiment (40° C., RH75%) [1]: Not increased | Change in CNS-7054, Long-term experiment (25° C., RH60%) [2]: Not increased

COC(=O)CCC1N=C(c2ccccn2)c2cc(Br)ccc2-n2c(C)cnc21.O=S(=O)(O)c1ccccc1 (stereo not shown) [Positive control 1]
Number of animals with duration time longer than 10 min (KM mice [3]): 9/20 | Number of animals with walking time longer than 1 min (KM mice [3]): 17/20 | Walking time (KM mice [3]): 514.95 ± 525.16 s | duration time (recovery time) (KM mice [3]): 692.3 ± 399.15 s | induction time (time of loss of the righting reflex) (KM mice [3]): 17.6 ± 1.93 s

CCOC(=O)CCC1N=C(c2ccccn2)c2cc(Br)ccc2-n2c(C)cnc21.Cl (stereo not shown) [Ethyl, 4.5% glycine]
Change in CNS-7054, Accelerated experiment (40° C., RH75%) [1]: Not increased | Change in CNS-7054, Long-term experiment (25° C., RH60%) [2]: Not increased

CCOC(=O)CCC1N=C(c2ccccn2)c2cc(Br)ccc2-n2c(C)cnc21.O=S(=O)(O)c1ccccc1 (stereo not shown) [Positive control 2]
Number of animals with duration time longer than 10 min (KM mice [3]): 7/20 | Number of animals with walking time longer than 1 min (KM mice [3]): 10/20 | Walking time (KM mice [3]): 192.9 ± 268.98 s | duration time (recovery time) (KM mice [3]): 443.75 ± 247.86 s | induction time (time of loss of the righting reflex) (KM mice [3]): 17.1 ± 2.00 s

CCOC(=O)CCC1N=C(c2ccccn2)c2cc(Br)ccc2-n2c(C)cnc21.Cl (stereo not shown) [Ethyl, 5% alanine]
Change in CNS-7054, Accelerated experiment (40° C., RH75%) [1]: Increased by 0.01% | Change in CNS-7054, Long-term experiment (25° C., RH60%) [2]: Not increased

COC(=O)CCC1N=C(c2ccccn2)c2cc(Br)ccc2-n2c(C)cnc21.Cl (stereo not shown) [Methyl, 2% glycine]
Change in CNS-7054, Accelerated experiment (40° C., RH75%) [1]: Not increased | Change in CNS-7054, Long-term experiment (25° C., RH60%) [2]: Not increased

COC(=O)CCC1N=C(c2ccccn2)c2cc(Br)ccc2-n2c(C)cnc21.Cc1ccc(S(=O)(=O)O)cc1 (stereo not shown)
CNS-7054 increase, accelerated experiment (40° C., RH75%) [1]: Increased by 0.1% | CNS-7054 increase, long-term experiment (25° C., RH60%) [2]: Increased by 0.1%

COC(=O)CCC1N=C(c2ccccn2)c2cc(Br)ccc2-n2c(C)cnc21.Cl (stereo not shown) [Methyl, 3% glycine]
Change in CNS-7054, Accelerated experiment (40° C., RH75%) [1]: Not increased | Change in CNS-7054, Long-term experiment (25° C., RH60%) [2]: Not increased

CCOC(=O)CCC1N=C(c2ccccn2)c2cc(Br)ccc2-n2c(C)cnc21.Cl (stereo not shown) [Ethyl, 1.7% glycine]
Change in CNS-7054, Accelerated experiment (40° C., RH75%) [1]: Not increased | Change in CNS-7054, Long-term experiment (25° C., RH60%) [2]: Not increased
